Converted amounts (≈) assume the structure as drawn.
Key:
Assay type in all cases: functional
[1] = fT>MIC in Pseudomonas aeruginosa infected patient at 2 g,iv administered as 3 hrs infusion every 8 hrs
Pseudomonas aeruginosa = assay: Antimicrobial activity against Pseudomonas aeruginosa isolated from infected patient by Etest method
[2] = fT>MIC in Pseudomonas aeruginosa infected patient

Compound: CO/N=C(\C(=O)N[C@@H]1C(=O)N2C(C(=O)[O-])=C(C[N+]3(C)CCCC3)CS[C@H]12)c1csc(N)n1 [CEFEPIME]
- fT>MIC [1]: >60%
- MIC50 (Pseudomonas aeruginosa): 3 µg/mL (≈ 6.24 µM)
- MIC90 (Pseudomonas aeruginosa): 16 µg/mL (≈ 33.3 µM)
- fT>MIC [2]: 85.2%

Reference: ChEMBL document CHEMBL1255390, “Clinical pharmacodynamics of cefepime in patients infected with Pseudomonas aeruginosa” (2010)
